# Experimental data reported in patent US7135578B2, “Iminocyclitol inhibitors of hexoaminidase and glycosidase” (The Scripps Research Institute, priority 1999, dated 2006).
# pKi: −log10 of the molar value. Entries after “also recorded” stand apart in the source; their conditions may differ.
# Experiments:
# [1] = test system: β-glucosidase; assay: Inhibition of β-glucosidase, kinetic analysis by capillary zone electrophoresis; format: biochemical; conditions: sweet almond enzyme, CZE
# Procedure: (§1) Initially, the total volume of assay solution was reduced because this is the only way to reduce the amount of enzyme and substrate used in the assay. The 96-well microtiter plate with a round bottom was used for the assay, and each well was sealed with tape. Thus, the assay was examined and carried out in a total volume of as little as 20 μL containing 1.76 mU of a glycosidase such as β-N-acetylhexosaminidase P. The electrophoresis was carried out using 50 mM borate buffer (pH 9.2˜10.2) as the electrolyte and the progress was monitored at 37° C. The injected volume of approximately 38.4 nL of a reaction mixture contained as little as 3.8 pmol of the substrate p-nitrophenyl (PNP) glycoside, thus the amount of PNP detected was less than 10^−12 mol. The peak corresponding to the p-nitrophenol, which appeared at around 6.5 min. in these conditions, was monitored at 405 nm.
# (§2) The inhibition studies of compounds 1–9 against α- and β-glucosidases (from Saccharomyces sp. and sweet almond, respectively) were carried out. PNP-glycosides of the parent sugars were used as the substrates throughout the assay. The apparent Km and Vmax values for each substrate were calculated from the double-reciplocal plot of standard 1/v −1/[substrate] curve.^18 The Ki values were determined from a replot of the slopes of Lineweaver-Burk plots vs. the inhibitor concentrations.
# Kinetic analyssis of β-glucosidase: To a 1-mL disposable cuvette was added 950 μL of 0.1 M acetate buffer (pH 5.0) solution, 20 μL of inhibitor solution, and 20 μL of 20 mM p-nitrophenyl-β-D-glucopyranoside solution. The solution was well mixed and warmed at 37° C. for 5 min, then 20 μL of the enzyme solution, which was dissolved in ice-cold Tris-HCl buffer (pH 7.8) and diluted with 10 mM phosphate buffer (pH 7.0) containing 0.2% of BSA, was added. The reaction was monitored at 400 nm on a Beckmann DU-70 spectrophotometer for 15 seconds, and the initial rate of hydrolysis was calculated. The same procedure was repeated with three other substrate concentrations. After the initial rates were accumulated, the corresponding Lineweaver-Burk plot at that inhibitor concentration was constructed.
# (§3) Condition of capillary zone electrophoresis: Assays were performed on a Waters Quanta 4000E capillary electrophoresis system, which was equipped with a 53 cm×75 μm fused i.d. silica capillary. Detection was carried out by on-column measurement of u.v. absorption at 405 nm at 7.5 cm from the cathode. The capillary used was pretreated or regenerated with 0.1 M KOH (2 min) and elution buffer before each injection. Samples were loaded by means of hydrostatic pressure at 10 cm height for 30 sec (ca 38.4 nl). […] Pherograms were recorded on Millennium 2010 system from Millipore Corp. […]
# [2] = test system: α-glucosidase; assay: Inhibition of α-glucosidase, kinetic analysis by capillary zone electrophoresis; format: biochemical; conditions: Saccharomyces sp. enzyme, CZE
# Procedure: as §1, §2
# Kinetic analysis of α-glucosidase: To a 1-mL disposable cuvette was added 950 μL of 0.1 M phosphate buffer (pH 7.0) solution, 20 μL of inhibitor solution, and 20 μL of 20 mM p-nitrophenyl-α-D-glucopyranoside solution. The solution was well mixed and warmed at 37° C. for 5 min, then 20 μL of the enzyme solution in 10 mM phosphate buffer (pH 7.0) containing 0.2% of BSA was added. The reaction was monitored at 400 nm on Beckmann DU-70 spectrophotometer for 15 seconds, and the initial rate of hydrolysis was calculated. The same procedure was repeated with three other substrate concentrations. After the initial rates were accumulated, the corresponding Lineweaver-Burk plot at that inhibitor concentration was constructed.
# as §3
# [3] = biological target: T1, β-N-acetylhexosaminidase A (Homo sapiens, UniProt P06865+P07686); assay: β-N-acetylhexosaminidase A inhibition with MUG and MUGS substrates (FIGS. 13A, 13B); format: biochemical
# [4] = biological target: β-N-acetylglucosaminidase; assay: Inhibition of β-N-acetylglucosaminidase, kinetic analysis by CZE; format: biochemical; conditions: β-N-acetylglucosaminidase from bovine kidney, substrate PNP-GlcNAc, replot of Lineweaver-Burk slopes
# Procedure: as §1
# as §2, with “concentrations. […]” for “concentrations.”
# [5] = test system: β-N-acetylhexoaminidases; assay: Intracellular β-N-acetylhexoaminidases activity (FIG. 12); format: cell-based
# [6] = test system: GAGs; assay: Whole cell assay of GAG concentration; format: cell-based
# [7] = biological target: T1, β-N-acetylhexosaminidase A; assay: Inhibition of β-N-acetylhexosaminidase A from human placenta; format: biochemical; set-up: Kinetic analysis of β-N-acetylhexosaminidase from human placenta; purchased Sigma Chemical Co. (St. Louis, Mo., USA); host or cells: human placenta; conditions: β-N-acetylhexaoaminidases A from human placenta
# Procedure: Condition of capillary zone electrophoresis: Assays were performed on a Waters Quanta 4000E capillary electrophoresis system, which was equipped with a 53 cm×75 μm fused i.d. silica capillary. Detection was carried out by on-column measurement of u.v. absorption at 405 nm at 7.5 cm from the cathode. The capillary used was pretreated or regenerated with 0.1 M KOH (2 min) and elution buffer before each injection. Samples were loaded by means of hydrostatic pressure at 10 cm height for 30 sec (ca 38.4 nl). Electrophoresis was performed at 20 kV using 50 mM sodium borate (pH 9.2 for β-N-Acetylglucosaminidase assays, pH 9.4 for β-glucosidase assays, pH 10.2 for α-glucosidase and β-N-acetylhexosaminidase assay) as electrolyte at a constant temperature of 37° C. Pherograms were recorded on Millennium 2010 system from Millipore Corp.
# Kinetic analysis of β-N-acetylhexosaminidase from human placenta: Incubations were performed in a total volume of 20 μL. Unless otherwise stated, reaction mixtures contained 100 mM citrate buffer (pH 4.5), various amount of p-NP-GlcNAc (0.1–1.1 mM) and various amount of inhibitor with 3.35 mU of β-N-acetylhexosaminidase A and 1.76 mU of β-N-acetylhexosaminidase P. After preincubation for 10 min at 37° C., the reaction was started by the addition of β-N-Acetylglucosaminidase and the reaction mixture was incubated for 15 min at 37° C. […]
# [8] = biological target: β-glucosidease from Almond; conditions: β-glucosidase from Almond, reported by Watson et al.; cited from earlier work
# [9] = biological target: α-glucosidase from baker's yeast; conditions: reported by Watson et al.; cited from earlier work
# T1 sequence (P06865 89-529): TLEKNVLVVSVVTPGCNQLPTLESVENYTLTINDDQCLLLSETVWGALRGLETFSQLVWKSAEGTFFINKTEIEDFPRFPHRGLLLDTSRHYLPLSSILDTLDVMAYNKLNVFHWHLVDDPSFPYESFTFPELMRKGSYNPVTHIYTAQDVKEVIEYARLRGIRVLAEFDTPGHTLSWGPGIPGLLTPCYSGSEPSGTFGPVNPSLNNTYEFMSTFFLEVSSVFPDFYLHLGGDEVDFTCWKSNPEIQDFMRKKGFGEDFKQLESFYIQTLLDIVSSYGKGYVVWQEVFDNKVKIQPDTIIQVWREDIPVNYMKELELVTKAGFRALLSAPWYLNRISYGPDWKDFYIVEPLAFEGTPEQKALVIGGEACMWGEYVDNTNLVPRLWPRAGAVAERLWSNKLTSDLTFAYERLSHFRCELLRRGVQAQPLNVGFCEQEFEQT
# T1 sequence (P06865 23-74 limits assumed): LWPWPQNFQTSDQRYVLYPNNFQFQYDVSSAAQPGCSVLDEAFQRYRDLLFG
# T1 sequence (P07686 315-556 limits assumed): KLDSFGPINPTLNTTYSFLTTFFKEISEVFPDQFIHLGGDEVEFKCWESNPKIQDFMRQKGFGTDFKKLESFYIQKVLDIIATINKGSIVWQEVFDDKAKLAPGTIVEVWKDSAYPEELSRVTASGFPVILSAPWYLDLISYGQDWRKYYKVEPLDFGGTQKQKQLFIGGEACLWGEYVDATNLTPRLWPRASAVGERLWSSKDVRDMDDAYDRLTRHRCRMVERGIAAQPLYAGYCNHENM
# T1 sequence (P07686 122-311 limits assumed): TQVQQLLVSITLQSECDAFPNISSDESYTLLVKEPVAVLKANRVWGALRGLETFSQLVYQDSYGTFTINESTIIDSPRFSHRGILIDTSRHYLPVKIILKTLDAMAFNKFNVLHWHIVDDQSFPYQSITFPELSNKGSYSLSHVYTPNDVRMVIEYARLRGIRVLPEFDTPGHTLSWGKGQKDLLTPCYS
# T1 sequence (P07686 50-107 limits assumed): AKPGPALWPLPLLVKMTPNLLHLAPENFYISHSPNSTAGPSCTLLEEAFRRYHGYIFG
compound,measurement,setting,value
"OC[C@H](O)[C@H]1N[C@H](CO)[C@@H](O)[C@H]1O [Compound 1, (2R,3S,4R,5R,1′R)-5-hydroxymethyl-3,4-dihydroxy-2-(1′,2′-dihydroxy)ethyl-pyrrolidine]",inhibitory activity against β-glucosidase,[1],weak inhibitor
same,inhibitory activity against α-glucosidase,[2],weak inhibitor
Sulfated NAG-thiozoline [Compound 108],inhibition activity towards MUGS compared with MUG,[3],higher inhibition activity towards the 6-sulfate-4-methyl-umbelliferyl-β-D-N-acetylglucosamine (MUGS) than to 4-methyl-umbelliferyl-β-D-N-acetylglucosamine (MUG)
CC(=O)NC[C@@H](O)[C@H]1N[C@H](CO)[C@@H](O)[C@@H]1O [Compound 6],inhibitory activity against β-glucosidase,[1],potent inhibitors; also recorded: identical inhibitory activity to 2
same,inhibitory activity against α-glucosidase,[2],identical inhibitory activity to 2
"OC[C@H]1N[C@H](CNC[C@H]2N[C@H](CO)[C@@H](O)[C@@H]2O)[C@@H](O)[C@@H]1O [Compound 9, N,N-di-{[(2R,3R,4R,5R)-(3,4-hydroxy-5-hydroxymethyl)-pyrrolidine]methyl} amine]",inhibitory activity against β-glucosidase,[1],inhibitory activity at the same level as 1 and 7
same,inhibitory activity against α-glucosidase,[2],as effective as 2
"CC(=O)NC[C@@H]1[C@@H](O)[C@H](O)[C@@H](CO)N1C [Compound 4, (2R,3R,4R,5R)-N-Methyl-(2-acetamidomethyl-3,4-dihydroxy-5-hydroxymethyl)-pyrrolidine]",pKi,[4],6.96
same,intracellular β-N-acetylhexaoaminidases activity,[5],dramatically decreased
same,GAG's intracellular concentration,[6],increase
same,GAGs' extracellular concentration,[6],decrease
same,pKi,[7],7.62
"CC1=N[C@@H]2[C@@H](O)[C@H](O)[C@@H](CO)O[C@@H]2S1 [Compound 107, NAG-thioazoline]",inhibition activity towards MUGS compared with MUG,[3],higher inhibition activity to MUG than to MUGS
"OC[C@H](O)[C@@H]1N[C@H](CO)[C@@H](O)[C@@H]1O [Compound 2, (1′R,2S,3R,4R,5R)-3,4-dihydroxy-2-[1′,2′-dihydroxy-ethyl]-5-hydroxymethyl-pyrrolidine]",inhibitory activity against β-glucosidase,[1],potent inhibitory activities
same,inhibitory activity against α-glucosidase,[2],potent inhibitory activities
same,pKi,[8],2.40
same,pKi,[9],1.07
